Source: patent publication US20240208937A1, “Compounds and Their Use for Treatment of Hemoglobinopathies” (Bristol-Myers Squibb Company, priority 2022, published 2024)

Tests used:
Assay type in all cases: cell-based
[1] = test system: fetal hemoglobin (HbF) in GCSF-mobilized human CD34+ cells; assay: HbF Induction Assay; conditions: 168 h; compound 1 μM, 7 days, erythroid-differentiated human CD34+ cells, flow cytometry; DMSO baseline 15% HbF positive cells
Method: The expansion, differentiation, and maturation of GCSF-mobilized human CD34^+ (STEMCELL Technologies Inc.) cells towards erythroid lineage cells were performed using a two-phase liquid culture model (Moutouh-de Parseval L A, el al. Pomalidomide and lenalidomide regulate erythropoiesis and fetal hemoglobin production in human CD34+ cells. J Clin Invest. 2008 January; 118(1):248-58). In the first phase, GCSF-mobilized human CD34^+ cells were cultured using StemSpan™-XF (STEMCELL Technologies Inc.) media supplemented with 1×BIT 9500, Penicillin-Streptomycin (50 U/mL), 100 ng/mL recombinant human (rh) SCF, 100 ng/mL rh Flt3-L, 20 ng/mL rh IL-3 and 10 ng/mL rh EPO and the growth of cells maintained in exponential phase for 7 days at 37° C. with 5% CO2 to support expansion and progenitor differentiation prior the second phase and treatment with compounds. In the second phase, culture media was changed to StemSpan™-XF media supplemented with 1×BIT 9500, Penicillin-Streptomycin (50 U/mL), 50 ng/mL rh SCF and 40 ng/mL rh EPO to promote further differentiation and maturation of the erythrocytes and to initiate treatment with compounds. Compounds were dispensed in duplicate at a final concentration of 1 μM in a final DMSO amount of 0.1%. Fresh compound was reapplied, and cell density was kept constant every 2 days. After 7 days, the cells were assessed for viability and fetal hemoglobin expression using flow cytometry. For viability analysis, eBioscience™ Fixable Viability Dye eFluor™ 780 (1:1000, eBioscience; Cat #65-0865-14) was added to the cells and kept in the dark for 10 minutes. For analysis of fetal hemoglobin (HbF), cells were fixed and permeabilized using Fixation Buffer (BioLegend; Cat #420801 and Intracellular staining permeabilization buffer (BioLegend, Cat #420201) following manufacturer's instructions. During permeabilization step, cells were stained with PE-labelled Mouse Anti-Human Fetal Hemoglobin (1:10, clone 2D12; BD Biosciences, Cat #BDB560041) incubated at room temperature for 20 minutes and protected from light. PE-labelled Mouse anti-IgG k, (1:10 clone MOPC-21; BD Biosciences, Cat# BDB551436) was used as an isotype control.
Viability, cell count, and fetal hemoglobin (HbF) levels were measured using an Attune NXT flow cytometer (Thermofisher) and the data analyzed using the FCS express software (De Novo Software). In Table 1 below, the effects of compounds of formula (I), formula (I′), formula (II), formula (II′), and formula (III) on % viable cells, viable cell count, on the % HbF positive cells and the median fluorescent intensity (MFI) of the HbF positive cell population compared to the DMSO controls can be viewed. All gates were set using the isotype negative control. The baseline % HbF positive cells for DMSO-treated control cells was 15%. Compounds of formula (I), formula (I′), formula (II), formula (II′), and formula (III) having HbF induction between 66% and 100% are level A. Compounds of formula (I), formula (I′), formula (II), formula (II′), and formula (III) having HbF induction between 33% and 66% are level B. Compounds of formula (I), formula (I′), formula (II), formula (II′), and formula (III) having HbF induction % less than 33% are level C. For certain compounds of formula (I), formula (I′), formula (II), formula (II′), and formula (III) % HbF induction values 0-33% (activity level C), between 33% and 66% (activity level B), and between 67% and 100% (activity level A) are shown in Table 2 below.

[2] = molecular target: WIZ (Widely interspaced zinc finger) (Homo sapiens (Human), UniProt O95785+Q96SW2); assay: HUDEP-2 WIZ HiBiT degradation assay; conditions: HUDEP-2 WIZ HiBiT cells, 24 hours treatment, luminescence; for DC50: read-out: WIZ EC50
Method: (§1) The HiBiT degradation assay for WIZ and ZBTB7A in HUDEP-2 cells was performed as described below. HUDEP-2 cells engineered to express a HiBiT tag in either the WIZ (Widely interspaced zinc finger) or ZBTB7A (Zinc Finger And BTB Domain Containing 7A) proteins were maintained in low attachment flasks in StemSpan SFEM II media supplemented with Penicillin-Streptomycin (50 U/mL), rhSCF (50 ng/mL), rhEPO (3 IU/mL), dexamethasone (0.4 μg/mL) and doxycycline (1 μg/mL). Prior to start of the assay, cell count and viability were measured by trypan blue exclusion using the Vi-cell XR cell viability analyzer. For the HUDEP-2 WIZ HiBiT assay, cells were transferred to a 50 mL conical and centrifuged at 500 g for five minutes. Cells were resuspended in fresh StemSpan SFEM II media supplemented with Penicillin-Streptomycin (50 U/mL), rhSCF (50 ng/mL), rhEPO (3 IU/mL), dexamethasone (0.4 μg/mL) and doxycycline (1 μg/mL) at a density of 1.0×10^6 cells/ml. Forty microliters of cell suspension was dispensed into 384-well Low Flange White Flat Bottom Polystyrene TC-treated Microplates containing pre-dispensed compounds, using a VIAFLO 384 liquid hander, and placed in a 37° C. incubator with 5% CO2. […] After 24 hours of treatment, 40 μL Nano-Glo HiBiT Lytic Detection System reagent was dispensed into each well using a VIAFLO 384 liquid hander. Plates were incubated for 25 minutes at room temperature and the luminescence was read as relative luminescent units using the EnVision plate reader. EC50 and Y-min values were calculated using curves calculated from dotmatics software after the normalization to the DMSO control of 10 different concentrations: 10, 3.33, 1.11, 0.37, 0.12, 0.04 0.0137, 0.0046, 0.0015 and 0.0005 μM respectively.

[3] = molecular target: ZBTB7A (Zinc Finger And BTB Domain Containing 7A) (Homo sapiens (Human), UniProt O95365+Q96SW2); assay: HUDEP-2 ZBTB7A HiBiT degradation assay; conditions: HUDEP-2 ZBTB7A HiBiT cells, 24 hours treatment, luminescence; for DC50: read-out: ZBTB7A EC50
Method: as §1
For the HUDEP-2 ZBTB7A HiBiT assay, cell count and viability were measured by trypan blue exclusion using the Vi-cell XR cell viability analyzer and the cells were transferred to a 50 mL conical and centrifuged at 500 g for five minutes. Cells were resuspended in fresh IMDM media supplemented with L-Glutamine (1×), Penicillin-Streptomycin (50 U/mL), holo-transferrin (330 μg/mL), heparin (2 IU/mL), r-human Insulin (10 μg/mL), rhEPO (3 IU/mL), rhSCF (100 ng/mL)+Dox (1 μg/mL) and 5% human plasma in low attachment flasks, which were placed in a 37° C. incubator with 5% CO2. After 48 hours, cell count and viability were measured by trypan blue exclusion using the Vi-cell XR cell viability analyzer. The HUDEP-2 ZBTB7A cells were transferred to a 50 mL conical, centrifuged at 500 g for five minutes and resuspended at a density of 1.0×10^6 cells/ml in IMDM media supplemented with L-Glutamine (1×), Penicillin-Streptomycin (50 U/mL), holo-transferrin (330 μg/mL), heparin (2 IU/mL), r-human Insulin (10 μg/mL), rhEPO (3 IU/mL), rhSCF (100 ng/mL)+Dox (1 μg/mL) and 5% human plasma. Forty microliters of cell suspension was dispensed into 384-well Low Flange White Flat Bottom Polystyrene TC-treated Microplates containing pre-dispensed compounds, using a VIAFLO 384 liquid hander, and placed in a 37° C. incubator with 5% CO2. […] After 24 hours of treatment, 40 μL Nano-Glo HiBiT Lytic Detection System reagent was dispensed into each well using a VIAFLO 384 liquid hander. Plates were incubated for 25 minutes at room temperature and the luminescence was read as relative luminescent units using the EnVision plate reader. EC50 and Y-min values were calculated using curves calculated from dotmatics software after the normalization to the DMSO control of 10 different concentrations: 10, 3.33, 1.11, 0.37, 0.12, 0.04 0.0137, 0.0046, 0.0015 and 0.0005 μM respectively.

Chain of WIZ (Widely interspaced zinc finger) (O95785 whole entry, the tested form may be a part): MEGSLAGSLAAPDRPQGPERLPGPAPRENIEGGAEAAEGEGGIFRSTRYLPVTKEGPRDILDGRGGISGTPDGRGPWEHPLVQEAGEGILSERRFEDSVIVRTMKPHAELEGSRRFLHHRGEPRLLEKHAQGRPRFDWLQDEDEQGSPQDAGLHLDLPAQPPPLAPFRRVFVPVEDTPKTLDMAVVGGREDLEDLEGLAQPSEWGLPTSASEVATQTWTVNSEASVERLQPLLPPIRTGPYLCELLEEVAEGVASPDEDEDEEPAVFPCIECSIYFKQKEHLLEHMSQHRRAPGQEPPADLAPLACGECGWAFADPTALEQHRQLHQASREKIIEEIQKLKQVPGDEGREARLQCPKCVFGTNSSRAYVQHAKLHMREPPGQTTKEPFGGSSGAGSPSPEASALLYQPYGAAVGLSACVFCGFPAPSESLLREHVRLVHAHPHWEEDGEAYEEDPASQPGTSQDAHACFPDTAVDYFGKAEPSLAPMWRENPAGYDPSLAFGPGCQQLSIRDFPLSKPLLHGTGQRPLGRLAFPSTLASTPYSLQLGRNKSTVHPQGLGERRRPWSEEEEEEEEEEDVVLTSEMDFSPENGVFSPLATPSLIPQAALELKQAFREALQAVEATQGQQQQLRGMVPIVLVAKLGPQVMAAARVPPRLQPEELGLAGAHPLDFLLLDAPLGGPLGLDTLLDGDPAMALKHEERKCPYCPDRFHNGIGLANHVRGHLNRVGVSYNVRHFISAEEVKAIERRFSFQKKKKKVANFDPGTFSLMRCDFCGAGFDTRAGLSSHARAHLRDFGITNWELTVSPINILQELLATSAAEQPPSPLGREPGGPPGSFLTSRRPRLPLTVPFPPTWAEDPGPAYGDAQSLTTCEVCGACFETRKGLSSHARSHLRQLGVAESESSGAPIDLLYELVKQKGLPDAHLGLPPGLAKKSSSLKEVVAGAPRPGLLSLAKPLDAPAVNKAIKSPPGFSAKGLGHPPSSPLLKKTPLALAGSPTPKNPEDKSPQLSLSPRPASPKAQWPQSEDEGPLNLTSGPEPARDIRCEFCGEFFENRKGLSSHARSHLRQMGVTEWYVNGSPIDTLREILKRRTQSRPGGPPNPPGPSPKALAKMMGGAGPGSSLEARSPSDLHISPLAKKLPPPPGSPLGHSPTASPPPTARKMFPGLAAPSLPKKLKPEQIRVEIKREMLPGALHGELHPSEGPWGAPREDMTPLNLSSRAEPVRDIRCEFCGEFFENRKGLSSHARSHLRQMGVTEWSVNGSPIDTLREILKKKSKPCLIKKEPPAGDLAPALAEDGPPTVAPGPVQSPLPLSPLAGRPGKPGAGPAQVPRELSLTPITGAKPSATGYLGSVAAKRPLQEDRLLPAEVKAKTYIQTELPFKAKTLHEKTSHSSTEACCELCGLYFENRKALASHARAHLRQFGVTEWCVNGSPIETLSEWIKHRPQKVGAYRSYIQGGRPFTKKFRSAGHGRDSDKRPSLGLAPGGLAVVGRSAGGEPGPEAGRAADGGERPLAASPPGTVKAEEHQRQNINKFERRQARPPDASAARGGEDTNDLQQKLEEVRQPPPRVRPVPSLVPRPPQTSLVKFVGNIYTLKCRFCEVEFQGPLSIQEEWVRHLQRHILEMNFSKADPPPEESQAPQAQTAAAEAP
Chain of WIZ (Widely interspaced zinc finger) (Q96SW2 whole entry, the tested form may be a part): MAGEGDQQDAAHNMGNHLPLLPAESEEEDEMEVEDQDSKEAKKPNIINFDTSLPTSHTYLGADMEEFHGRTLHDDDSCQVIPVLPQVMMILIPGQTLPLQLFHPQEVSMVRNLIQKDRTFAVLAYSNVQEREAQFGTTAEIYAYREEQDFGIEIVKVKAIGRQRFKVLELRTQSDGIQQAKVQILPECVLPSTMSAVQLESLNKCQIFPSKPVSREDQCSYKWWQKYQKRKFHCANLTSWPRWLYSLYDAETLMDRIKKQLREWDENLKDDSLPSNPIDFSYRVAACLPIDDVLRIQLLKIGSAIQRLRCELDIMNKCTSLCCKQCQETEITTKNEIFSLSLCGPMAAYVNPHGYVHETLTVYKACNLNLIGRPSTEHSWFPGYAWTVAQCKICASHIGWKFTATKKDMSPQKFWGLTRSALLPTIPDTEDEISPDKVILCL
Chain of WIZ (Widely interspaced zinc finger) (Q16531 whole entry partner, the tested form may be a part): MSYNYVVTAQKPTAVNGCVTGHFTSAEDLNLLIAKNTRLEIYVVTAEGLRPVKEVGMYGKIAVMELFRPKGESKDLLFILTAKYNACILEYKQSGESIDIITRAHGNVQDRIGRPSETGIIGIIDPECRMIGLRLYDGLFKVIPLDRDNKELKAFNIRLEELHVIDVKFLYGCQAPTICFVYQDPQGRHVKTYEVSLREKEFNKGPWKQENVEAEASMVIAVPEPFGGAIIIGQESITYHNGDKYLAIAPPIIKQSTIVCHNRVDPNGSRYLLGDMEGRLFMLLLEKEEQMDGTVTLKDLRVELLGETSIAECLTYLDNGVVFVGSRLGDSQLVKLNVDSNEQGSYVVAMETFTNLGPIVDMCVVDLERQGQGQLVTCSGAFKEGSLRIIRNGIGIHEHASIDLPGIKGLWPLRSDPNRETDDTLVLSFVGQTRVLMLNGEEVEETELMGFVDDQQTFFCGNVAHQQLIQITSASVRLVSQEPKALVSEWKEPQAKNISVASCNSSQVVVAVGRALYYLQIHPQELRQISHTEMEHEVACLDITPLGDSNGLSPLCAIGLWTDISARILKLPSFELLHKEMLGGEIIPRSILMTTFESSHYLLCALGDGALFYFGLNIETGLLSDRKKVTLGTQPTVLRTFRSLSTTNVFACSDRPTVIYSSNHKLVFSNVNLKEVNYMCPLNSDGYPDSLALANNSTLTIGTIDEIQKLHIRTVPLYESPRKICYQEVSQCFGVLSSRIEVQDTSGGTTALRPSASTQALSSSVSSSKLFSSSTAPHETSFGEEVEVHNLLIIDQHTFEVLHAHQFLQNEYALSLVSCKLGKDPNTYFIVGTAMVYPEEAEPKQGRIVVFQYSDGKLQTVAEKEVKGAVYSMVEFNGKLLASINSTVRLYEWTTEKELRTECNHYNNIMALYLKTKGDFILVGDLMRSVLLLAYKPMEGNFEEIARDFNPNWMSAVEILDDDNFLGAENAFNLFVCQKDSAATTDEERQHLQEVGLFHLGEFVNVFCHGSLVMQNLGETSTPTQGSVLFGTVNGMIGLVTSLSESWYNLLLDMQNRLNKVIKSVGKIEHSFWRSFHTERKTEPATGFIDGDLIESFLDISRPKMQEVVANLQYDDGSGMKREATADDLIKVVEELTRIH
Chain of ZBTB7A (Zinc Finger And BTB Domain Containing 7A) (O95365 whole entry, the tested form may be a part): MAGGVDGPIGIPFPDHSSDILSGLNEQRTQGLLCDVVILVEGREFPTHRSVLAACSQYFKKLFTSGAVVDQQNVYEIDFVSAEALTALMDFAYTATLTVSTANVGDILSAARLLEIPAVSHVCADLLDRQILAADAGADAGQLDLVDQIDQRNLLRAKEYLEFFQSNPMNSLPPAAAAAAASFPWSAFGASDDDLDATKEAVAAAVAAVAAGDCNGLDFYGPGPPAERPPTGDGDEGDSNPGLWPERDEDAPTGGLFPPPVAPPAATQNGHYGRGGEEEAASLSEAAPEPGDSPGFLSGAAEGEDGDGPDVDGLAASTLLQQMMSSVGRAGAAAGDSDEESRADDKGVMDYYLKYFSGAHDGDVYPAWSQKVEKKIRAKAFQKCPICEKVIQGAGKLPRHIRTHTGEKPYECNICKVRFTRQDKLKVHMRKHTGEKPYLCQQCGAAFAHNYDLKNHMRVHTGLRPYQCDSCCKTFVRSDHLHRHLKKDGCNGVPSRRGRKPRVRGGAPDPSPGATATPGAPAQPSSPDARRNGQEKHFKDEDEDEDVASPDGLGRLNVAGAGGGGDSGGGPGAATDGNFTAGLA
Chain of ZBTB7A (Zinc Finger And BTB Domain Containing 7A) (Q96SW2 whole entry, the tested form may be a part): as the sequence (Q96SW2 whole entry, the tested form may be a part) above
Chain of ZBTB7A (Zinc Finger And BTB Domain Containing 7A) (Q16531 whole entry partner, the tested form may be a part): as the sequence (Q16531 whole entry partner, the tested form may be a part) above

Row | SMILES | activation at 1 µM [1] [%] | DC50 [2] [nM] | DC50 [3] [nM] | EC50 [3] [nM] | EC50 [2] [nM]
1 | Cc1cc(-c2cc3nc(C)n(C)c3cc2Nc2cccc3c2C(=O)N(C2CCC(=O)NC2=O)C3=O)ccn1 (stereo not shown) [Compound 1, 4-((1,2-dimethyl-5-(2-methylpyridin-4-yl)-1H-benzo[d]imidazol-6-yl)amino)-2-(2,6-dioxopiperidin-3-yl)isoindoline-1,3-dione] | 66 to 100 | 10 to 100 | < 30 |  | 
2 | Cc1cc2c(cc1Nc1cccc3c1C(=O)N(C1CCC(=O)NC1=O)C3=O)N(C)C(=O)CC2 (stereo not shown) [Compound 33, 4-((1,6-dimethyl-2-oxo-1,2,3,4-tetrahydroquinolin-7-yl)amino)-2-(2,6-dioxopiperidin-3-yl)isoindoline-1,3-dione] |  | 10 to 100 | 30 to 100 |  | 
3 | CN1C(=O)CCc2cc(C3CC3)c(Nc3cccc4c3C(=O)N(C3CCC(=O)NC3=O)C4=O)cc21 (stereo not shown) [Compound 34, 4-((6-cyclopropyl-1-methyl-2-oxo-1,2,3,4-tetrahydroquinolin-7-yl)amino)-2-(2,6-dioxopiperidin-3-yl)isoindoline-1,3-dione] |  | 10 to 100 |  | < 30 | 
4 | Cc1cc(-c2cc3c(cc2Nc2cccc4c2C(=O)N([C@H]2CCC(=O)NC2=O)C4=O)N(C)C(=O)CC3)cn(C)c1=O [Compound 35, (S)-4-((6-(1,5-dimethyl-6-oxo-1,6-dihydropyridin-3-yl)-1-methyl-2-oxo-1,2,3,4-tetrahydroquinolin-7-yl)amino)-2-(2,6-dioxopiperidin-3-yl)isoindoline-1,3-dione] |  | 10 to 100 | 30 to 100 |  | 
5 | CN1C(=O)CCc2cc(-c3cnn(C)c3)c(Nc3cccc4c3C(=O)N(C3CCC(=O)NC3=O)C4=O)cc21 (stereo not shown) [Compound 36, 2-(2,6-dioxopiperidin-3-yl)-4-((1-methyl-6-(1-methyl-1H-pyrazol-4-yl)-2-oxo-1,2,3,4-tetrahydroquinolin-7-yl)amino)isoindoline-1,3-dione] |  | 10 to 100 |  | < 30 | 
6 | CN1C(=O)CCc2cc(-c3cnn(C4CC4)c3)c(Nc3cccc4c3C(=O)N([C@H]3CCC(=O)NC3=O)C4=O)cc21 [Compound 37, (S)-4-((6-(1-cyclopropyl-1H-pyrazol-4-yl)-1-methyl-2-oxo-1,2,3,4-tetrahydroquinolin-7-yl)amino)-2-(2,6-dioxopiperidin-3-yl)isoindoline-1,3-dione] |  |  |  | < 30 | < 10
7 | Cc1nn(C)cc1-c1cc2c(cc1Nc1cccc3c1C(=O)N([C@H]1CCC(=O)NC1=O)C3=O)N(C)C(=O)CC2 [Compound 38, (S)-4-((6-(1,3-dimethyl-1H-pyrazol-4-yl)-1-methyl-2-oxo-1,2,3,4-tetrahydroquinolin-7-yl)amino)-2-(2,6-dioxopiperidin-3-yl)isoindoline-1,3-dione] |  | 10 to 100 |  | < 30 | 
8 | COc1cc(-c2cc3c(cc2Nc2cccc4c2C(=O)N([C@H]2CCC(=O)NC2=O)C4=O)N(C)C(=O)CC3)cc(C)n1 [Compound 49, (S)-2-(2,6-dioxopiperidin-3-yl)-4-((6-(2-methoxy-6-methylpyridin-4-yl)-1-methyl-2-oxo-1,2,3,4-tetrahydroquinolin-7-yl)amino)isoindoline-1,3-dione] |  |  |  | < 30 | < 10
9 | COc1nccc(-c2cc3c(cc2Nc2cccc4c2C(=O)N(C2CCC(=O)NC2=O)C4=O)N(C)C(=O)CC3)c1F (stereo not shown) [Compound 50, 2-(2,6-dioxopiperidin-3-yl)-4-((6-(3-fluoro-2-methoxypyridin-4-yl)-1-methyl-2-oxo-1,2,3,4-tetrahydroquinolin-7-yl)amino)isoindoline-1,3-dione] |  | 10 to 100 |  | < 30 | 
10 | COc1cc(-c2cc3c(cc2Nc2cccc4c2C(=O)N(C2CCC(=O)NC2=O)C4=O)N(C)C(=O)CC3)c(F)cn1 (stereo not shown) [Compound 51, 2-(2,6-dioxopiperidin-3-yl)-4-((6-(5-fluoro-2-methoxypyridin-4-yl)-1-methyl-2-oxo-1,2,3,4-tetrahydroquinolin-7-yl)amino)isoindoline-1,3-dione] |  | 10 to 100 | 30 to 100 |  | 
11 | Cc1cc(-c2cc3c(cc2Nc2cccc4c2C(=O)N([C@]2(C)CCC(=O)NC2=O)C4=O)N(C)C(=O)CC3)ccn1 [Compound 53, (R)-2-(3-methyl-2,6-dioxopiperidin-3-yl)-4-((1-methyl-6-(2-methylpyridin-4-yl)-2-oxo-1,2,3,4-tetrahydroquinolin-7-yl)amino)isoindoline-1,3-dione] |  | > 100 |  | > 100 | 
12 | CC1(N2C(=O)c3cccc(Nc4cccc(COc5ccccc5)c4)c3C2=O)CCC(=O)NC1=O (stereo not shown) [Compound 54, 2-(3-methyl-2,6-dioxopiperidin-3-yl)-4-((3-(phenoxymethyl)phenyl)amino)isoindoline-1,3-dione] |  | > 100 |  | > 100 | 
